Measurements as given in US20230338564A1, “NEODEGRADER CONJUGATES” (Orum Therapeutics, Inc., priority 2020, published 2023).

Assays:
[1] = tested on: BT-474 breast cancer cell line; experiment: In vitro antiproliferation assay, General Procedure 1 (WST-8); format: cell-based; conditions: Homo sapiens, BT-474, read-out: IC50, BT-474, conjugates DAR 8, comparators DAR not given
Protocol: (§1) The ability of neoDegrader conjugates to inhibit cell growth was measured using in vitro anti-proliferation assay. […] Conjugates were diluted in complete cell growth medium using 4-fold serial dilutions and 100 µL was added per well. […] Viability of remaining cells was determined by colorimetric WST-8 assay (Dojindo Molecular Technologies, Inc., Rockville, MD, US). WST-8 was added to 10% of the final volume and plates were incubated at 37° C. in a humidified 5% CO2 incubator for 2-4 hours. Plates were analyzed by measuring the absorbance at 450 nm (A450) in a multi-well plate reader. Background A450 absorbance of wells with media and WST-8 only was subtracted from all values. The percent viability was calculated by dividing each treated sample value by the average value of wells with untreated cells. The percent viability value was plotted against the test sample concentration in a semi-log plot for each treatment. IC50 values were calculated automatically.

[2] = tested on: CFPAC-1 cell line (Pancreatic); experiment: as above; format: cell-based; conditions: Homo sapiens
Protocol: as §1

[3] = tested on: Daudi lymphoma cell line; experiment: as above; format: cell-based
Protocol: as §1

[4] = tested on: HCC1954 cell line (Breast); experiment: as above; format: cell-based; conditions: Homo sapiens, conjugates DAR 8
Protocol: as §1

[5] = tested on: JHUEM-3 cell line (Uterus); experiment: as above; format: cell-based
Protocol: as §1

[6] = tested on: NCI-H2030 cell line (Lung); experiment: as above; format: cell-based; conditions: Homo sapiens
Protocol: as §1

[7] = tested on: NCI-N87 gastric cancer cell line; experiment: as above; format: cell-based
Protocol: as §1

[8] = tested on: Ramos (non-Hodgkins lymphoma) cell line; experiment: as above; format: cell-based
Protocol: as §1

[9] = tested on: SK-BR-3 breast cancer cell line; experiment: as above; format: cell-based
Protocol: as §1

[10] = tested on: AGS cell line; experiment: In vitro antiproliferation assay, General Procedure 2 (CCK-8); format: cell-based; conditions: Homo sapiens, Gastric
Description: (§2) Cell Culture: Cell lines were obtained from the American Type Culture Collection (ATCC, Manassas, VA, USA) or Deutsche Sammlung von Mikroorganismen und Zellkulturen (DSMZ, Braunschweig, Germany) and maintained according to the culturing conditions specified by ATCC or DSMZ. Cells were thawed out and maintained in culture for at least two passages before proceeding with experimental conditions.
(§3) Cytotoxicity assays: For adherent cell lines, the cells were dissociated with enzyme-free PBS-based cell dissociation buffer (Gibco, USA) and plated on tissue culture treated 96-well flat bottom polystyrene plates (Costar, Corning, USA) at appropriate cell densities depending on doubling time of the cells. 18 hours after plating, cells were treated with test articles at appropriate concentrations starting at 100 nM and diluted in 4-fold serial dilutions. For suspension cell lines, the cells were seeded on the same day of treatment and cells were treated as described above. Adherent cells were treated for 5 days and suspension cells were treated for 3 days. Cell proliferation was assessed using the Cell Counting Kit-8 (CCK-8, Dojindo Laboratories, Japan) and measurements were obtained using the Promega GloMax Discover plate reader (Promega, USA). Data were analyzed using GraphPad Prism software (GraphPad Software, San Diego, CA). All data points were obtained from technical triplicates and the experiments were validated using three biological replicates.

[11] = tested on: ASKA synovial sarcoma cell line; experiment: as above; format: cell-based
Description: as §2, §3

[12] = tested on: BT-474 cell line; experiment: as above; format: cell-based; conditions: Homo sapiens, Breast, read-out: IC50, BT474
Description: as §2, §3

[13] = tested on: CMK cell line; experiment: as above; format: cell-based; conditions: Homo sapiens, Acute megakaryocytic leukemia
Description: as §2, §3

[14] = tested on: JHUEM3 cell line; experiment: as above; format: cell-based; conditions: Endometrial
Description: as §2, §3

[15] = tested on: KE39 cell line; experiment: as above; format: cell-based; conditions: Gastric
Description: as §2, §3

[16] = tested on: LOVO cell line; experiment: as above; format: cell-based; conditions: Homo sapiens, Colon
Description: as §2, §3

[17] = tested on: MV4-11 cell line; experiment: as above; format: cell-based; conditions: Homo sapiens, MV4-11; Biphenotypic B myelomonocytic leukemia; read-out: IC50, MV4-11
Description: as §2, §3

[18] = tested on: NB-4 cell line; experiment: as above; format: cell-based; conditions: Homo sapiens, Acute promyelocytic leukemia
Description: as §2, §3

[19] = tested on: OCI-AML4 cell line; experiment: as above; format: cell-based; conditions: Acute myeloid leukemia; read-out: IC50, OCI-AML4
Description: as §2, §3

[20] = tested on: OCI-M1 cell line; experiment: as above; format: cell-based; conditions: Acute myeloid leukemia
Description: as §2, §3

[21] = tested on: OCI-M2 cell line; experiment: as above; format: cell-based; conditions: Acute myelocytic leukemia
Description: as §2, §3

[22] = tested on: PL-21 cell line; experiment: as above; format: cell-based; conditions: Acute myeloid leukemia
Description: as §2, §3

[23] = tested on: SK-BR-3 cell line; experiment: as above; format: cell-based; conditions: Homo sapiens, Breast, read-out: IC50, SKBR3
Description: as §2, §3

[24] = tested on: SKM-1 cell line; experiment: as above; format: cell-based; conditions: Homo sapiens, SKM-1; Acute myeloid leukemia; read-out: IC50, SKM-1
Description: as §2, §3

[25] = tested on: SNU182 cell line; experiment: as above; format: cell-based; conditions: Homo sapiens, SNU-182; Liver
Description: as §2, §3

[26] = tested on: SU-DHL-8 cell line; experiment: as above; format: cell-based; conditions: Homo sapiens, NHL
Description: as §2, §3

[27] = tested on: THLE2 cell line; experiment: as above; format: cell-based; conditions: THLE-2; Human liver normal
Description: as §2, §3

[28] = tested on: THP-1 cell line; experiment: as above; format: cell-based; conditions: Homo sapiens, AML
Description: as §2, §3

[29] = tested on: EOL-1 cell line; experiment: as above; format: cell-based, human; conditions: Homo sapiens, EOL1; Acute myeloid leukemia; read-out: IC50, EOL-1
Description: as §2, §3

IC50 [1]: 13 nM
IC50 ([3]; Homo sapiens, Daudi): > 100 nM
IC50 [4]: > 100 nM
IC50 [6]: > 100 nM
IC50 ([7]; Homo sapiens, NCI-N87, Gastric, conjugates DAR 8): > 100 nM
IC50 ([8]; Homo sapiens, Ramos): > 100 nM
IC50 ([9]; Homo sapiens, SK-BR-3, Breast, conjugates DAR 8): 100 nM
IC50 [10]: > 1000 nM
IC50 [11]: 71.2 nM
IC50 [12]: 13 nM
IC50 [16]: > 1000 nM
IC50 [17]: 2.72 nM
IC50 [19]: 22.4 nM
IC50 [20]: > 1000 nM
IC50 [21]: 650 nM
IC50 [23]: 100 nM
IC50 [24]: 3.21 nM
IC50 [25]: 12.7 nM
IC50 [26]: 102 nM
IC50 [28]: 350 nM
Structure (SMILES): CNCCOCCc1ccc(NC(=O)NCc2ccc3c(c2)CN(C2CCC(=O)NC2=O)C3=O)cc1Cl (stereo not drawn) [Compound P1, 1-(3-chloro-4-[2-[2-(methylamino)ethoxy]ethyl]phenyl)-3-[[2-(2,6-dioxopiperidin-3-yl)-1-oxo-3H-isoindol-5-yl]methyl]urea]
IC50 [2]: > 100 nM
antiproliferative activity compared, in words ([3]; Daudi cells, rituximab neoDegrader conjugates versus comparators, FIGS. 14 and 15): less active
IC50 [5]: > 100 nM
anti-proliferative activity compared, in words ([7]; NCI-N87 cells, neoDegrader conjugates (DAR 8) versus comparators, FIGS. 16 and 17): significantly less active
antiproliferative activity compared, in words ([8]; Ramos cells, rituximab neoDegrader conjugates versus comparators, FIG. 13): less active
anti-proliferative activity compared, in words ([9]; SK-BR-3 cells, neoDegrader conjugates (DAR 8) versus comparators, FIGS. 7 and 8): significantly less active
IC50 [13]: 408 nM
IC50 [14]: > 1000 nM
IC50 [15]: > 1000 nM
IC50 [18]: 8.63 nM
IC50 [22]: 7.55 nM
IC50 [27]: > 1000 nM
IC50 [29]: 3.1 nM
